Measurements: the supplement of paper PMC11061612

Assays:
SK-N-AS (Neuroblastoma) = assay: combination Emax (second highest fraction inhibited in the dose matrix, 72 h); higher = more inhibition; extreme values may be limits of the assay
Procedure, shortened: (§1)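 Cell lines in DMEM/F12 or RPMI with 10% FBS were plated in 1536-well plates, held 24 hours at 37°C, 5% CO2, then given two-drug dose matrices for 72 hours (DMSO typically 0.2%). Viability was read by CellTiter-Glo 2.0 luminescence and scaled as inhibition from 0 (vehicle wells) to 1 (blank wells). Combination Emax is the second-highest inhibition in the matrix; Bliss excess is observed combination effect minus expected EA + EB − EA·EB, EA and EB being single-agent effects.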

[1] = test system: DU-145 (Prostate Carcinoma); assay: as above
Procedure, shortened: as §1

[2] = test system: HCC1937 (Breast Carcinoma); assay: as above
Procedure, shortened: as §1

[3] = test system: NCI-H1355 (Lung Adenocarcinoma); assay: as above
Procedure, shortened: as §1

[4] = test system: OE33 (Esophageal Adenocarcinoma); assay: as above
Procedure, shortened: as §1

[5] = test system: Ca-Ski (Cervical Carcinoma); assay: as above
Procedure, shortened: as §1

[6] = test system: NCI-H1838 (Lung Adenocarcinoma); assay: as above
Procedure, shortened: as §1

[7] = test system: SW982 (Other Solid Carcinomas); assay: as above
Procedure, shortened: as §1

[8] = test system: NCI-H1092 (Small Cell Lung Carcinoma); assay: as above
Procedure, shortened: as §1

[9] = test system: NCI-H522 (Lung Adenocarcinoma); assay: as above
Procedure, shortened: as §1

[10] = test system: G-401 (Other Solid Carcinomas); assay: as above
Procedure, shortened: as §1

[11] = test system: EFO-21 (Ovarian Carcinoma); assay: as above
Procedure, shortened: as §1

[12] = test system: HCC1500 (Breast Carcinoma); assay: as above
Procedure, shortened: as §1

[13] = test system: SK-LU-1 (Lung Adenocarcinoma); assay: as above
Procedure, shortened: as §1

[14] = test system: COLO-668 (Small Cell Lung Carcinoma); assay: as above
Procedure, shortened: as §1

[15] = test system: EJM (Plasma Cell Myeloma); assay: as above
Procedure, shortened: as §1

[16] = test system: SNU-387 (Hepatocellular Carcinoma); assay: as above
Procedure, shortened: as §1

[17] = test system: NCI-H2122 (Lung Adenocarcinoma); assay: as above
Procedure, shortened: as §1

[18] = test system: SW872 (Other Solid Carcinomas); assay: Bliss excess, mean over the matrix (fraction); higher = more synergy
Procedure, shortened: as §1

[19] = test system: COLO-668 (Small Cell Lung Carcinoma); assay: as above
Procedure, shortened: as §1
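For Bliss excess, mean over the matrix in this document: after 72 h of two-drug dosing.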

Row | SMILES | combination Emax (SK-N-AS (Neuroblastoma)) | combination Emax [1] | combination Emax [2] | combination Emax [3] | combination Emax [4] | combination Emax [5] | combination Emax [6] | combination Emax [7] | combination Emax [8] | combination Emax [9] | combination Emax [10] | combination Emax [11] | combination Emax [12] | combination Emax [13] | combination Emax [14] | combination Emax [15] | combination Emax [16] | combination Emax [17] | Bliss excess [18] | Bliss excess [19]
1 | COc1nnc2ccc(N3CCC(c4ccc(OCCN5CCN(C)C(=O)[C@H]5C)cc4)CC3)nn12 [AZD5153] + C[C@@H]1COCCN1C2=NC(=NC(=C2)C3(CC3)[S@](=N)(=O)C)C4=C5C=CNC5=NC=C4 [AZD6738] (first compound max 1 µM, 7x7, partner max 10 µM) | 0.716 | 0.447 | 0.434 | 0.639 | 0.731 | 0.794 | 0.441 | 0.843 | 0.523 | 0.565 | 0.924 | 0.488 | 0.454 | 0.516 | 0.917 | 0.867 | 0.524 | 0.981 | -0.0383 | 0.0137
2 | COc1nnc2ccc(N3CCC(c4ccc(OCCN5CCN(C)C(=O)[C@H]5C)cc4)CC3)nn12 [AZD5153] + Cn1cnc2c(F)c(Nc3ccc(Br)cc3Cl)c(C(=O)NOCCO)cc21 [Selumetinib] (first compound max 1 µM, 7x7, partner max 10 µM) | 0.663 | 0.28 | 0.396 | 0.483 | 0.414 | 0.813 | 0.394 | 0.789 | 0.192 | 0.469 | 0.841 | 0.439 | 0.387 | 0.46 | 0.899 | 0.619 | 0.514 | 1 | 0.0635 | 0.236
3 | Cc1c2c(nn1C)CSCc1cc(n(C)n1)CSc1cc(c3ccccc3c1)OCCCc1c(C(=O)O)n(C)c3c-2c(Cl)ccc13 [AZD5991] + CC1(C)CCC(CN2CCN(c3ccc(C(=O)NS(=O)(=O)c4ccc(NCC5CCOCC5)c([N+](=O)[O-])c4)c(Oc4cnc5[nH]ccc5c4)c3)CC2)=C(c2ccc(Cl)cc2)C1 [Venetoclax] (first compound max 1 µM, 7x7, partner max 1 µM) | 0.871 | 0.149 | 0.316 | 0.188 | 0.21 | 0.682 | 0.306 | 0.192 | 0.989 | 0.443 | 0.565 | 0.207 | 1 | 0.258 | 0.686 | 0.959 | 0.454 | 0.823 | -0.0443 | 0.0932
4 | NC1(C(=O)N[C@@H](CCO)c2ccc(Cl)cc2)CCN(c2ncnc3[nH]ccc23)CC1 [Capivasertib] + CC(=O)c1c(C)c2cnc(Nc3ccc(N4CCNCC4)cn3)nc2n(C2CCCC2)c1=O [Palbociclib] (first compound max 10 µM, 7x7, partner max 10 µM) | 0.351 | 0.166 | 0.477 | 0.472 | 0.259 | 0.462 | 0.432 | 0.607 | 0.177 | 0.172 | 0.898 | 0.101 | 0.239 | 0.4 | 0.437 | 0.391 | 0.312 | 0.793 | 0.0237 | -0.0496
5 | CS(=O)(=O)CCNCc1ccc(-c2ccc3ncnc(Nc4ccc(OCc5cccc(F)c5)c(Cl)c4)c3c2)o1 [Lapatinib] + C[C@@H](Oc1cc(-c2cnn(C3CCNCC3)c2)cnc1N)c1c(Cl)ccc(F)c1Cl [Crizotinib] (first compound max 10 µM, 7x7, partner max 10 µM) | 0.359 | 0.286 | 0.674 | 0.564 | 0.909 | 0.969 | 0.436 | 0.968 | 0.604 | 0.457 | 0.942 | 0.371 | 0.854 | 0.451 | 0.665 | 0.937 | 0.93 | 0.962 | -0.0069 | -0.0594
6 | CN(C)CCCOc1ccc(-c2ccc3ncc4c(c3c2)n(C2CCOCC2)c(=O)n4C)cn1 [AZD0156] + CCN(CCO)CCCOc1ccc2c(Nc3cc(CC(=O)Nc4cccc(F)c4)[nH]n3)ncnc2c1 [AZD2811] (first compound max 1 µM, 7x7, partner max 1 µM) | 0.183 | 0.134 | 0.159 | 0.216 | 0.068 | 0.274 | 0.263 | 0.548 | 0.181 | 0.0622 | 0.309 | 0.116 | 0.298 | 0.143 | 0.0922 | 0.0982 | 0.207 | 0.358 | -0.0311 | -0.0175
7 | CC(=O)c1c(C)c2cnc(Nc3ccc(N4CCNCC4)cn3)nc2n(C2CCCC2)c1=O [Palbociclib] + Cc1c2c(nn1C)CSCc1cc(n(C)n1)CSc1cc(c3ccccc3c1)OCCCc1c(C(=O)O)n(C)c3c-2c(Cl)ccc13 [AZD5991] (first compound max 10 µM, 7x7, partner max 1 µM) | 0.461 | 0.107 | 0.242 | 0.345 | 0.275 | 0.342 | 0.363 | 0.528 | 0.608 | 0.57 | 0.854 | 0.256 | 0.434 | 0.297 | 0.304 | 0.443 | 0.429 | 0.773 | -0.0184 | -0.0288
